Measurements taken from patent publication US9532982B2, “Pharmaceutical combination comprising a phosphatidylinositol 3-kinase inhibitor and/an aromatase inhibitor” (Novartis AG, priority 2012, dated 2017).

What was measured:
[1] = system: MCF7/Aro human breast carcinoma cells; assay: Δ4A induced MCF7/Aro cell proliferation (CellTiter-Glo), Compound A and letrozole, Example 2; format: cell-based; conditions: 10 nM Δ4A, 5 days, vs DMSO control
Method: (§1) Synergy is calculated by comparing a combination's response to those of its single agents, against the drug-with-itself dose-additive reference model.

[2] = system: MCF7/Aro human breast carcinoma cells; assay: Δ4A induced MCF7/Aro cell proliferation (CellTiter-Glo), Compound A and exemestane, Example 1; format: cell-based; conditions: 10 nM Δ4A, 5 days, vs DMSO control
Method: as §1

Row | SMILES | maximum level inhibition of Δ4A-driven cell proliferation, single agent [1] [%] | maximum level inhibition of Δ4A-driven cell proliferation, single agent [2] [%]
1 | N#Cc1ccc(C(c2ccc(C#N)cc2)n2cncn2)cc1 [letrozole] | 53 | 
2 | Cc1nc(NC(=O)N2CCC[C@H]2C(N)=O)sc1-c1ccnc(C(C)(C)C(F)(F)F)c1 [Compound A, (S)-Pyrrolidine-1,2-dicarboxylic acid 2-amide 1-({4-methyl-5-[2-(2,2,2-trifluoro-1,1-dimethyl-ethyl)-pyridin-4-yl]-thiazol-2-yl}-amide)] | 61 | 61
3 | C=C1C[C@@H]2[C@H](CC[C@]3(C)C(=O)CC[C@@H]23)[C@@]2(C)C=CC(=O)C=C12 [exemestane] |  | 33
